Where “and” joins values, the source holds several entries; their conditions need not be identical. Identical values can stand only once. Like-named read-outs stand apart in the source and are kept apart here. Marks after values point to notes of the source that are not given here.
Tests used:
[1] = system: pSMAD2 in peripheral blood mononuclear cells (PBMCs); experiment: pSMAD2 ELISA in peripheral blood mononuclear cells of treated patients; assay type: in vivo, Human; conditions: for inhibition at 160 mg: Homo sapiens, PBMC, 160 mg/day cohort (Part A)
Experimental: pSMAD2 in peripheral blood mononuclear cells (PBMCs) were assessed by a specific ELISA as previously described, in which a rabbit polyclonal antibody recognizing pSMAD2 was used. Total SMAD2 was also assessed and used to normalize the expression of pSMAD2.
(§1) A power model was fitted to PK parameter estimates Cmax and AUC(0–24) to assess the extent of dose proportionality. Clinical benefit in this study has been defined as a patient with either a complete response (CR), partial response (PR), and stable disease (SD) ≥6 cycles. MAIP results from plasma samples taken at baseline were compared between patients completing >6 cycles and ≤6 cycles using ANOVA. The analysis included controlling the false discovery rate to 30 % using the Benjamini-Hochberg method. Boxplots showing the distributions at baseline of the potentially prognostic markers are provided. Observed TGF-β-stimulated pSMAD2 (pSMAD2^+) in PBMCs was normalized by TGF-β-stimulated tSMAD2 [(tSMAD2^+) ^0.6[9, 10]] prior to determining the minimum normalized pSMAD2^+ and calculating percentage inhibition post-baseline for each patient. Baseline and minimum post-baseline values for each patient together with maximum percentage inhibition are presented on a line and scatter plot for each patient in Cohort 3 and summary statistics by time point provided from a standard mixed effects regression model, fitting log normalized pSMAD2^+ to the fixed effects of log baseline normalized pSMAD2^+, nominal time point, dose and their interaction and patient as a random effect.
Using an ELISA to detect changes of pSMAD2 in isolated PBMCs as a PD response marker, we observed changes after galunisertib administration. […] In 11 of the 14 patients, pSMAD2 inhibition was assessed at the observed maximum concentration for galunisertib about 2–6 h after administration on Day 14 of the first cycle. In 6 of the 11 patients, pSMAD2 levels were reduced in relationship to drug concentration, while in the remaining 5 patients, there was no relationship at the expected Cmax (Fig. 2a). […] Once the drug was stopped after 14 days of administration, pSMAD2 changes were assessed for the next 3 days in 2 patients, one in Cohort 1 and 1 in Cohort 3 (Fig. 2c and d). The pSMAD2 inhibition was still present although drug levels were low or undetectable. The mean of the observed percentage inhibition of normalized pSMAD2^+ from Cycle 1 Day 1 and Day 12 for Cohort 3 together with the estimated means from the model are provided in Table 2.

[2] = Safety and blood counts in first-in-human dose study; assay type: in vivo
From the text: An amendment was introduced to assess T cell subsets in Part B and Part C.

[3] = system: glioma; experiment: Radiographic response / clinical benefit (RECIST, Macdonald criteria) in first-in-human dose study; assay type: in vivo; conditions: for Cycles (n) (best response): individual glioma patients with sequenced tumor; for CR/PR/SD ≥6 cycles, Low grade/secondary glioma / CR/PR/SD ≥6 cycles, Primary glioma: number of patients; for Clinical Benefit / No Clinical Benefit: Parts A and B
Experimental: Starting with Cohort 3, only patients with relapsed and progressive glioma were eligible for this study. All patients were assessed for radiographic responses using Response Evaluation Criteria in Solid Tumors (RECIST) and, for glioma patients, using Macdonald criteria. All patients had to have an Eastern Cooperative Oncology Group performance status of ≤2. Patients were required to have adequate hematologic, hepatic, and renal function and discontinue all previous therapies for cancer at least 4 weeks prior to study enrollment. Exclusion criteria included medically uncontrolled cardiovascular illness, electrocardiogram anomalies, serious pre-existing medical conditions, and any unapproved therapy.
• Part A was a dose escalation study using galunisertib monotherapy administered initially to patients with advanced or metastatic cancer as a daily continuous dosing. Starting with Cohort 3 and for the remainder of the study, patients received galunisertib on an intermittent dose regimen of 14 days on/14 days off for a 28-day cycle. • Part B was a safety study using galunisertib on an intermittent dose regimen at 160 mg/day (80 mg twice daily [BID]) and 300 mg/day (150 mg BID) in combination with lomustine given once every 6 weeks in patients with recurrent malignant glioma who had previously failed approved treatments. • Part C was a relative bioavailability (RBA) crossover study conducted at only one center to assess two new formulations (publication in preparation). All patients were then eligible to continue on 300 mg/day dosing. In this part of the study, patients with different tumor histologies were eligible to participate; the majority of patients had glioma. The only results from Part C presented in this publication are the results of the T cell subset examination. Other results will be published elsewhere.
as §1
In order to interpret protein and gene expression as potential prognostic factors we used the concept of clinical benefit based on radiographic response and/or stable disease for ≥6 cycles (Table 3).

[4] = patients with advanced cancer, first-in-human dose study
[5] = Part B, in combination with lomustine
[6] = Part B, in combination with lomustine, n=26
[7] = Primary glioma (n=13), IDH1/2 mutation
[8] = Primary glioma (n=13), Other mutation
[9] = Secondary or low grade glioma (n=8), IDH1/2 mutation
[10] = Secondary or low grade glioma (n=8), Other mutation

**Q.** Which “patients with a reduction in pSMAD2 in PBMCs” value ([1]; Cohort 3 (160 mg/day), 9 of 14 patients, first 14 days of treatment) does the source give for `Cc1cccc(-c2nn3c(c2-c2ccnc4ccc(C(N)=O)cc24)CCC3)n1` [galunisertib] here?
**A.** The value was 64%.

**Q.** What about the “mean percentage inhibition of pSMAD2” value ([1]; Cohort 3, end of 14 days of treatment, PBMCs) of the same compound?
**A.** Its value is “approximately 40%”.

**Q.** What about the “patients with pSMAD2 levels reduced in relationship to drug concentration” value ([1]; Cohort 3, of 11 patients assessed about 2–6 h after administration on Day 14 of first cycle) of the same compound?
**A.** The value was 6 patients.

**Q.** What about the inhibition at 160 mg ([1]; Day 1, 0.5 h, PBMCs, mixed-effects model, read-out: Fitted Percentage Inhibition of Normalized pSMAD2) of the same compound?
**A.** Its inhibition at 160 mg is 27%.

**Q.** What about the inhibition at 160 mg ([1]; Day 1, 0.5 h, PBMCs, read-out: Observed Percentage Inhibition of Normalized pSMAD2) of the same compound?
**A.** The inhibition at 160 mg was 26%.

**Q.** What about the inhibition at 160 mg ([1]; Day 1, 4 h, PBMCs, mixed-effects model, read-out: Fitted Percentage Inhibition of Normalized pSMAD2) of the same compound?
**A.** The inhibition at 160 mg was 5%.

**Q.** And the inhibition at 160 mg ([1]; Day 1, 4 h, PBMCs, read-out: Observed Percentage Inhibition of Normalized pSMAD2)?
**A.** Its inhibition at 160 mg is 5%.

**Q.** And the inhibition at 160 mg ([1]; Day 1, 6 h, PBMCs, mixed-effects model, read-out: Fitted Percentage Inhibition of Normalized pSMAD2)?
**A.** Its inhibition at 160 mg is -10%.

**Q.** What about the inhibition at 160 mg ([1]; Day 1, 6 h, PBMCs, read-out: Observed Percentage Inhibition of Normalized pSMAD2) of the same compound?
**A.** Its inhibition at 160 mg is -10%.

**Q.** And the inhibition at 160 mg ([1]; Day 12 or 15 post dose (2, 3, 4, 6 h), PBMCs, mixed-effects model, read-out: Fitted Percentage Inhibition of Normalized pSMAD2)?
**A.** Its inhibition at 160 mg is 34%.

**Q.** What about the inhibition at 160 mg ([1]; Day 12 or 15 post dose (2, 3, 4, 6 h), PBMCs, read-out: Observed Percentage Inhibition of Normalized pSMAD2) of the same compound?
**A.** The inhibition at 160 mg was 39%.

**Q.** And the “pSMAD2 inhibition after drug was stopped” value ([1]; next 3 days after 14 days of administration, 2 patients, drug levels low or undetectable)?
**A.** Its value is “still present”.

**Q.** What about the lymphocyte counts ([2]; Part B, combination of galunisertib and lomustine, some patients) of the same compound?
**A.** The lymphocyte counts was “reduction in lymphocyte counts”.

**Q.** What about the “bone marrow toxicity (neutrophils, platelets, lymphocyte counts)” value ([2]; Part C, monotherapy 300 mg/day, patients receiving more than 2 cycles) of the same compound?
**A.** Its value is “no comparable bone marrow toxicity”.

**Q.** And the cardiac adverse events [2, 4]?
**A.** Its cardiac adverse events is “no cardiac adverse events”.

**Q.** What about the “toxicity / safety profile” value [2, 4] of the same compound?
**A.** The value was “favorable safety profile”.

**Q.** What about the “toxicity / safety profile” value ([2]; patients with advanced cancer, first-in-human dose study, listed as Galunisertib) of the same compound?
**A.** The value was “favorable toxicity profile”.

**Q.** What about the “patients with primary glioblastoma showing radiographic responses or SD ≥6 cycles” value ([3]; 3/13 patients, no IDH1 or IDH2 mutation) of the same compound?
**A.** The value was 23%.

**Q.** And the “patients with tumors not containing the EGFR variant treated for ≥6 cycles” value ([3]; 7/13 patients)?
**A.** Its value is 54%.

**Q.** And the “patients with tumors containing EGFR variants treated for <6 cycles” value ([3]; 8/8 patients (2 in Part A and 6 in Part B))?
**A.** The value was 100%.

**Q.** And the “patients with clinical benefit (CR, PR or SD ≥6 cycles)” value ([3]; 12 of 79 patients, all parts, all in glioma)?
**A.** The value was 15%.

**Q.** And the “cycles treated, patients still receiving galunisertib as of June 2014” value ([3]; Part A, 2 individual patients)?
**A.** Its value is 73 cycles and 55 cycles.

**Q.** And the “Cycles on study treatment, median (range)” value ([3]; Part A, monotherapy, N=39)?
**A.** Its value is 2 (1–46).

**Q.** And the “Cycles (n) (best response)” value ([3]; Part A, monotherapy)?
**A.** The value was 3 and 2 and 1 and 29 (CR) and 13 (PR) and 22 (PR) and 46 (CR) and 40 (SD).

**Q.** And the CR/PR ([3]; Part A, monotherapy, n=30)?
**A.** The CR/PR was 5 (16.7) n (%).

**Q.** What about the “CR/PR/SD ≥6 cycles” value ([3]; Part A, monotherapy, n=30) of the same compound?
**A.** Its value is 6 n (%) and 6 (20.0) n (%).

**Q.** And the “On study treatment at study closure in 2012” value ([3]; Part A, monotherapy, n=30)?
**A.** The value was 2 (6.7) n (%).

**Q.** What about the “CR/PR/SD ≥6 cycles, Low grade/secondary glioma” value ([3]; Part A, monotherapy) of the same compound?
**A.** Its value is 3.

**Q.** And the “CR/PR/SD ≥6 cycles, Primary glioma” value ([3]; Part A, monotherapy)?
**A.** The value was 3.

**Q.** What about the “cycles treated, patient still receiving galunisertib as of June 2014” value ([3]; Part B, 1 patient) of the same compound?
**A.** Its value is 48 cycles.

**Q.** What about the “Cycles on study treatment, median (range)” value ([3]; Part B, in combination with lomustine, N=26) of the same compound?
**A.** The value was 2 (1–22).

**Q.** What about the “Cycles (n) (best response)” value [3, 5] of the same compound?
**A.** The value was 10 (PR) and 12 (SD) and 2 and 4 and 1.

**Q.** What about the CR/PR [3, 6] of the same compound?
**A.** The CR/PR was 2 (7.7) n (%).

**Q.** And the “CR/PR/SD ≥6 cycles” value [3, 6]?
**A.** The value was 6 ^* n (%) and 6 (23.1) ^* n (%).

**Q.** What about the “On study treatment at study closure in 2012” value [3, 6] of the same compound?
**A.** The value was 1 (3.8) n (%).

**Q.** What about the “CR/PR/SD ≥6 cycles, Low grade/secondary glioma” value [3, 5] of the same compound?
**A.** The value was 4.

**Q.** What about the “CR/PR/SD ≥6 cycles, Primary glioma” value [3, 5] of the same compound?
**A.** Its value is 2.

**Q.** What about the “Clinical Benefit” value [3, 7] of the same compound?
**A.** Its value is 0/13.

**Q.** What about the “No Clinical Benefit” value [3, 7] of the same compound?
**A.** The value was 0/13.

**Q.** And the “Clinical Benefit” value [3, 8]?
**A.** The value was 3/13.

**Q.** What about the “No Clinical Benefit” value [3, 8] of the same compound?
**A.** Its value is 10/13.

**Q.** And the “Clinical Benefit” value [3, 9]?
**A.** Its value is 4/8.

**Q.** What about the “No Clinical Benefit” value [3, 9] of the same compound?
**A.** The value was 1/8.

**Q.** And the “Clinical Benefit” value [3, 10]?
**A.** The value was 0/8.

**Q.** And the “No Clinical Benefit” value [3, 10]?
**A.** Its value is 3/8.

**Q.** And the “patients with clinical benefit (CR/PR and SD ≥6 cycles) among patients with IDH1/2 mutation” value ([3]; of the 5 patients with IDH1/2 mutation)?
**A.** The value was 4 patients.
